{"source": "patent US20210059959A1", "about": "“USE OF CANNABINOIDS IN THE TREATMENT OF MENTAL DISORDERS” (GW Pharma Limited, priority 2015, published 2021)", "system": "participants with schizophrenia or related psychotic disorder", "assay": "Scale for the Assessment of Negative Symptoms (SANS), double-blind placebo-controlled study of CBD as adjunctive therapy", "assay_type": "in vivo, human", "protocol": "Example 1 below describes the use of a highly purified cannabis extract comprising cannabidiol (CBD) in a human clinical trial. Example 1 describes data produced in a double-blind, randomised, placebo-controlled, parallel group study of highly purified CBD as adjunctive therapy in first line treatment of schizophrenia or related psychotic disorder.\nAn eight-week, multi-centre, double-blind, randomised, placebo-controlled, parallel group study was conducted with the aim to determine the efficacy, safety and tolerability of highly purified CBD as adjunctive therapy in first line treatment of schizophrenia or related psychotic disorder.\nThis study evaluated the efficacy of highly purified CBD compared with placebo on the participant's PANSS Total score, ‘P’, ‘N’, ‘G’, SANS and BACS scores.\nChanges from baseline in PANSS scores (Total, ‘P’, ‘N’ and ‘G’), SANS and BACS were recorded at the start of the study (baseline) and at the end of treatment (after 6 weeks treatment with CBD or placebo).\nFor inclusion in the study participants were required to be male or female aged 18 to 65 years, diagnosed with schizophrenia or a related psychotic disorder (such as schizoaffective or schizophreniform disorder) as defined by the Diagnostic and Statistical Manual of Mental Disorders Version 4. Participants must have been treated for a minimum of four-weeks and be on a stable dose of their current antipsychotic medication. […] A PANSS score in excess of 60 infers that the patient has symptoms related to schizophrenia or related disorders.\nThe participants were randomised to one of two treatment groups which each consisted of 39 participants. Treatment was administered as either 5 ml CBD (100 mg/ml) oral solution to be taken twice daily or 5 ml matched placebo oral solution to be taken twice daily.\nScale for the Assessment of Negative Symptoms (SANS)\nSANS assesses five symptom complexes to obtain clinical ratings of negative symptoms in participants with schizophrenia or related psychotic disorder. They are: affective blunting; alogia (impoverished thinking); avolition/apathy; anhedonia/asociality; and disturbance of attention.\nAssessments are conducted on a six-point scale (0=not at all to 5=severe). This scale was measured at each assessment visit (Visit 1-4)", "key": {"[1]": {"conditions": "CBD adjunct, 6 weeks, all patients"}, "[2]": {"conditions": "CBD adjunct, 6 weeks, patients on amisulpride"}, "[3]": {"conditions": "CBD adjunct, 6 weeks, patients on aripiprazole"}, "[4]": {"conditions": "CBD adjunct, 6 weeks, patients on olanzapine"}, "[5]": {"conditions": "CBD adjunct, 6 weeks, patients on other antipsychotics"}, "[6]": {"conditions": "CBD adjunct, 6 weeks, patients on quetiapine"}, "[7]": {"conditions": "CBD adjunct, 6 weeks, patients on risperidone"}}}
{"smiles": "C=C(C)[C@@H]1CCC(C)=C[C@H]1c1c(O)cc(CCCCC)cc1O", "note": "[CBD, Cannabidiol]", "values": [{"measurement": "Change in baseline scores, SANS question 15: Impersistence at work or school", "setting": "[1]", "result": "−0.5"}, {"measurement": "Change in baseline scores, SANS question 18: Recreational interests and activity", "setting": "[1]", "result": "−0.6"}, {"measurement": "Change in baseline scores, SANS question 19: Sexual interest and activity", "setting": "[1]", "result": "−0.4"}, {"measurement": "Change in baseline scores, SANS question 20: Ability to feel closeness and intimacy", "setting": "[1]", "result": "−0.3"}, {"measurement": "Change in baseline scores, SANS question 21: Relationships with friends and peers", "setting": "[1]", "result": "−0.3"}, {"measurement": "Change in baseline scores, SANS question 22: Global rating of anhedonia", "setting": "[1]", "result": "−0.3"}, {"measurement": "Change in baseline scores, SANS question 23: Social inattentiveness", "setting": "[1]", "result": "−0.5"}, {"measurement": "Change in baseline scores, SANS question 24: Inattentiveness during mental status testing", "setting": "[1]", "result": "−0.6"}, {"measurement": "Change in baseline scores, SANS question 25: Global rating of attention", "setting": "[1]", "result": "−0.5"}, {"measurement": "Change in baseline scores, SANS sub-scale 4 (anhedonia/asociality)", "setting": "[1]", "result": "−1.9"}, {"measurement": "Change in baseline scores, SANS sub-scale 5 (disturbance of attention)", "setting": "[1]", "result": "−1.6"}, {"measurement": "Change in baseline scores, SANS total score", "setting": "[1]", "result": "−9.5"}, {"measurement": "Change in baseline scores, SANS question 15: Impersistence at work or school", "setting": "[2]", "result": "−0.5"}, {"measurement": "Change in baseline scores, SANS question 18: Recreational interests and activity", "setting": "[2]", "result": 0.0}, {"measurement": "Change in baseline scores, SANS question 19: Sexual interest and activity", "setting": "[2]", "result": 0.0}, {"measurement": "Change in baseline scores, SANS question 20: Ability to feel closeness and intimacy", "setting": "[2]", "result": "−0.1"}, {"measurement": "Change in baseline scores, SANS question 21: Relationships with friends and peers", "setting": "[2]", "result": "−0.1"}, {"measurement": "Change in baseline scores, SANS question 22: Global rating of anhedonia", "setting": "[2]", "result": "−0.1"}, {"measurement": "Change in baseline scores, SANS question 23: Social inattentiveness", "setting": "[2]", "result": "−0.1"}, {"measurement": "Change in baseline scores, SANS question 24: Inattentiveness during mental status testing", "setting": "[2]", "result": "−0.8"}, {"measurement": "Change in baseline scores, SANS question 25: Global rating of attention", "setting": "[2]", "result": 0.0}, {"measurement": "Change in baseline scores, SANS score", "setting": "[2]", "result": "−2.4"}, {"measurement": "Change in baseline scores, SANS sub-scale 4 (anhedonia/asociality)", "setting": "[2]", "result": "−0.1"}, {"measurement": "Change in baseline scores, SANS sub-scale 5 (disturbance of attention)", "setting": "[2]", "result": "−1.0"}, {"measurement": "Change in baseline scores, SANS question 15: Impersistence at work or school", "setting": "[3]", "result": "−0.3"}, {"measurement": "Change in baseline scores, SANS question 18: Recreational interests and activity", "setting": "[3]", "result": "−0.1"}, {"measurement": "Change in baseline scores, SANS question 19: Sexual interest and activity", "setting": "[3]", "result": "−0.1"}, {"measurement": "Change in baseline scores, SANS question 20: Ability to feel closeness and intimacy", "setting": "[3]", "result": 0.0}, {"measurement": "Change in baseline scores, SANS question 21: Relationships with friends and peers", "setting": "[3]", "result": "−0.1"}, {"measurement": "Change in baseline scores, SANS question 22: Global rating of anhedonia", "setting": "[3]", "result": 0.0}, {"measurement": "Change in baseline scores, SANS question 23: Social inattentiveness", "setting": "[3]", "result": "−0.4"}, {"measurement": "Change in baseline scores, SANS question 24: Inattentiveness during mental status testing", "setting": "[3]", "result": "−0.5"}, {"measurement": "Change in baseline scores, SANS question 25: Global rating of attention", "setting": "[3]", "result": "−0.4"}, {"measurement": "Change in baseline scores, SANS score", "setting": "[3]", "result": "−4.7"}, {"measurement": "Change in baseline scores, SANS sub-scale 4 (anhedonia/asociality)", "setting": "[3]", "result": "−0.2"}, {"measurement": "Change in baseline scores, SANS sub-scale 5 (disturbance of attention)", "setting": "[3]", "result": "−1.3"}, {"measurement": "Change in baseline scores, SANS question 15: Impersistence at work or school", "setting": "[4]", "result": "−1.2"}, {"measurement": "Change in baseline scores, SANS question 18: Recreational interests and activity", "setting": "[4]", "result": "−1.3"}, {"measurement": "Change in baseline scores, SANS question 19: Sexual interest and activity", "setting": "[4]", "result": "−1.0"}, {"measurement": "Change in baseline scores, SANS question 20: Ability to feel closeness and intimacy", "setting": "[4]", "result": "−1.0"}, {"measurement": "Change in baseline scores, SANS question 21: Relationships with friends and peers", "setting": "[4]", "result": "−0.6"}, {"measurement": "Change in baseline scores, SANS question 22: Global rating of anhedonia", "setting": "[4]", "result": "−0.8"}, {"measurement": "Change in baseline scores, SANS question 23: Social inattentiveness", "setting": "[4]", "result": "−0.9"}, {"measurement": "Change in baseline scores, SANS question 24: Inattentiveness during mental status testing", "setting": "[4]", "result": "−0.7"}, {"measurement": "Change in baseline scores, SANS question 25: Global rating of attention", "setting": "[4]", "result": "−0.9"}, {"measurement": "Change in baseline scores, SANS score", "setting": "[4]", "result": "−20.5"}, {"measurement": "Change in baseline scores, SANS sub-scale 4 (anhedonia/asociality)", "setting": "[4]", "result": "−4.9"}, {"measurement": "Change in baseline scores, SANS sub-scale 5 (disturbance of attention)", "setting": "[4]", "result": "−2.5"}, {"measurement": "Change in baseline scores, SANS question 18: Recreational interests and activity", "setting": "[5]", "result": "−0.4"}, {"measurement": "Change in baseline scores, SANS question 19: Sexual interest and activity", "setting": "[5]", "result": "−0.3"}, {"measurement": "Change in baseline scores, SANS question 20: Ability to feel closeness and intimacy", "setting": "[5]", "result": "−0.1"}, {"measurement": "Change in baseline scores, SANS question 21: Relationships with friends and peers", "setting": "[5]", "result": "−0.2"}, {"measurement": "Change in baseline scores, SANS question 22: Global rating of anhedonia", "setting": "[5]", "result": "−0.2"}, {"measurement": "Change in baseline scores, SANS question 23: Social inattentiveness", "setting": "[5]", "result": "−0.9"}, {"measurement": "Change in baseline scores, SANS question 24: Inattentiveness during mental status testing", "setting": "[5]", "result": "−1.3"}, {"measurement": "Change in baseline scores, SANS question 25: Global rating of attention", "setting": "[5]", "result": "−0.3"}, {"measurement": "Change in baseline scores, SANS score", "setting": "[5]", "result": "−10.6"}, {"measurement": "Change in baseline scores, SANS sub-scale 4 (anhedonia/asociality)", "setting": "[5]", "result": "−1.2"}, {"measurement": "Change in baseline scores, SANS sub-scale 5 (disturbance of attention)", "setting": "[5]", "result": "−2.5"}, {"measurement": "Change in baseline scores, SANS question 18: Recreational interests and activity", "setting": "[6]", "result": "−1.3"}, {"measurement": "Change in baseline scores, SANS question 19: Sexual interest and activity", "setting": "[6]", "result": "−1.5"}, {"measurement": "Change in baseline scores, SANS question 20: Ability to feel closeness and intimacy", "setting": "[6]", "result": "−0.4"}, {"measurement": "Change in baseline scores, SANS question 21: Relationships with friends and peers", "setting": "[6]", "result": "−0.7"}, {"measurement": "Change in baseline scores, SANS question 22: Global rating of anhedonia", "setting": "[6]", "result": "−1.3"}, {"measurement": "Change in baseline scores, SANS question 23: Social inattentiveness", "setting": "[6]", "result": "−0.6"}, {"measurement": "Change in baseline scores, SANS question 24: Inattentiveness during mental status testing", "setting": "[6]", "result": "−0.9"}, {"measurement": "Change in baseline scores, SANS question 25: Global rating of attention", "setting": "[6]", "result": "−0.5"}, {"measurement": "Change in baseline scores, SANS score", "setting": "[6]", "result": "−10.4"}, {"measurement": "Change in baseline scores, SANS sub-scale 4 (anhedonia/asociality)", "setting": "[6]", "result": "−5.1"}, {"measurement": "Change in baseline scores, SANS sub-scale 5 (disturbance of attention)", "setting": "[6]", "result": "−1.8"}, {"measurement": "Change in baseline scores, SANS question 15: Impersistence at work or school", "setting": "[7]", "result": "−0.3"}, {"measurement": "Change in baseline scores, SANS question 18: Recreational interests and activity", "setting": "[7]", "result": "−0.3"}, {"measurement": "Change in baseline scores, SANS question 19: Sexual interest and activity", "setting": "[7]", "result": 0.0}, {"measurement": "Change in baseline scores, SANS question 20: Ability to feel closeness and intimacy", "setting": "[7]", "result": 0.0}, {"measurement": "Change in baseline scores, SANS question 21: Relationships with friends and peers", "setting": "[7]", "result": "−0.1"}, {"measurement": "Change in baseline scores, SANS question 22: Global rating of anhedonia", "setting": "[7]", "result": "−0.2"}, {"measurement": "Change in baseline scores, SANS question 23: Social inattentiveness", "setting": "[7]", "result": 0.2}, {"measurement": "Change in baseline scores, SANS question 24: Inattentiveness during mental status testing", "setting": "[7]", "result": "−0.1"}, {"measurement": "Change in baseline scores, SANS question 25: Global rating of attention", "setting": "[7]", "result": 0.0}, {"measurement": "Change in baseline scores, SANS score", "setting": "[7]", "result": "−3.6"}, {"measurement": "Change in baseline scores, SANS sub-scale 4 (anhedonia/asociality)", "setting": "[7]", "result": "−0.4"}, {"measurement": "Change in baseline scores, SANS sub-scale 5 (disturbance of attention)", "setting": "[7]", "result": 0.1}, {"measurement": "Change in baseline scores, SANS question 15: Impersistence at work or school: difference", "setting": "CBD vs placebo, all patients, P = 0.0187", "result": "(−0.4)"}]}
